In patent US20130065226A1, “METHOD OF DETERMINING DOSE AND ADMINISTRATION OF STATIN” (TOHOKU UNIVERSITY, priority 2011, published 2013):
Read-outs that look alike come from different tables or passages of the source. Where a SMILES comes first, the peptide text is derived from it. The star is where a group is joined. Cbz = O=C(OCc1ccccc1)*

Experiments:
[1] = test system: AngII-induced production of ROS in HUVEC; experiment: Reactive oxygen species analysis (DCF staining) in siRNA-transfected HUVEC; assay type: cell-based, human; conditions: atorvastatin 1 μM or pitavastatin 0.1 μM 24 h, then 1 μM AngII 3 h
Method: (§1) An AngII-induced cardiovascular hypertrophy model in mice was produced according to Yagi et al.'s literature (Yagi, S. et al., Circ. Res. 102, 68-76 (2008)). Statins were administered to mice by gavage every day for 2 weeks. After 2 weeks of sustained AngII administration by means of osmotic pump, the present inventors observed the left ventricular function and measured the weight of the heart of each mouse by means of an ultrasound imaging system. […] After a 2 weeks washout period, the subjects were switched to take an alternative medicine for additional 2 weeks.
(§2) Multiple siRNAs duplexes specific to SmgGDS were purchased from Qiagen. A functional non-targeting siRNA that was bioinformatically designed by Qiagen was used as a control. Either 10 nM control siRNA or 10 nM siRNA that was specific to SmgGDS was transfected into HUVEC with HiPerFect transfection Reagent (Qiagen). After 72 hour post-transfection, the cells were analyzed by either Wester blot or ROS analysis.
The present inventors treated HUVEC with AngII (1μM, Wako) at 37° C. in 5% CO2 for 3 hours, washed them with PBS and stained them with 2,7-dichlorofluoroscein diacetate (H2DCF-DA) (5 μM, Cayman) at 37° C. for 30 minutes to visualize the ROS production as green fluorescence (488 nm) through a fluorescence microscope (BIOREVO, Keyence). The relative fluorescence intensity was measured by means of BZ-II analyzer (Keyence) software.

SmgGDS [2] = experiment: SmgGDS expression in HUVEC after 24 h drug treatment (western blot); assay type: cell-based, human; conditions: for SmgGDS expression level in HUVEC: 24 h treatment, atorvastatin 10 and 30 μM, pitavastatin 1 and 10 μM; for inhibition of the statin-induced increase in SmgGDS expression level: FPP or GGPP 10 μM co-treated with atorvastatin or pitavastatin, 24 h
Racl [3] = experiment: Protein expression in HUVEC subcellular fractions: Racl (with or without proteasome inhibitor MG-132)
SmgGDS [4] = experiment: Protein expression in HUVEC subcellular fractions: SmgGDS; assay type: cell-based, human; conditions: HUVEC cytoplasm fraction, 24 h; atorvastatin 10 μM, pitavastatin 1 μM
[5] = Body weight, blood pressure and plasma lipid profiles in AngII-infused mice; assay type: in vivo; conditions: ATOR 10 mpk, PRA 50 mpk; for Systolic blood pressure / HDL cholesterol / LDL-cholesterol / Total cholesterol / Triglyceride: 2 weeks; for Systolic blood pressure / Body weight: mean ± s.e.m.; for Body weight: gavage daily 2 weeks; for HDL cholesterol / LDL-cholesterol / Total cholesterol / Triglyceride: plasma
Method: as §1
The present inventors conducted all mouse experiments in accordance with experimental protocols that were approved by the Animal Care and Use Committee of the Tohoku University Graduate School of Medicine. The present inventors used an AngII-induced cardiovascular hypertrophy model (see Yagi, S . et al . , Circ. Res. 102. 68-76 (2008)) to assess the effect of SmgGDS deficiency on the pleiotropic effects of low-dose statins. The present inventors infused 2.0 mg kg^−1 day^−1 or saline for 2 weeks in 10-week-old male SmgGDS^+/+ littermate control mice and SmgGDS^+/− mice. The inventors dissolved AngII in sterile saline and infused it via osmotic mini-pumps (Alzet model 2002, Alze Corp.). The inventors anesthetized the animals with isofluorane. Then, the inventors prepared subcutaneous pockets in the isofluorane-anesthetized mice and placed the pumps into the subcutaneous pockets through a small incision in the back that was closed by suturing. Either statin or vehicle was administered to both the AngII-infused and saline-infused mouse by gavage every day for 2 weeks . All incision sites rapidly healed without any infection. Systolic blood pressure was measured by using a non-invasive tail-cuff system (MK-2000, Muromachi) 2 weeks after the pump implantation. Plasma lipids (triglycerides, total cholesterol, LDL-cholesterol and HDL-cholesterol) were analyzed with the high-performance liquid chromatography system of Skylight Biotech. Echocardiographic analysis was performed by using an ultrasound imaging system (Vevo 2100, VisualSonic Inc.). The mice were shaved and M-mode images of the left ventricle were recorded while the heart rate was kept at about 500 bpm.

SmgGDS [6] = experiment: Human study: SmgGDS expression in circulating leukocytes (western blot); assay type: in vivo; conditions: for increase of SmgGDS in leukocytes, average of the 20 volunteers: 20 mg, 2 weeks, vs before administration
Excerpt: (§3) The exclusion criteria included abnormal liver or kidney dysfunction before and during the statin administration and treatment.

[7] = Human study: plasma lipid profiles, glucose, insulin and HOMA-IR; assay type: in vivo; conditions: for HDL-cholesterol, Change (%) / LDL-cholesterol, Change (%) / MDA-LDL, Change (%) / RLP cholesterol, Change (%) / Total cholesterol, Change (%) / Triglyceride, Change (%) / HDL-cholesterol, After 2 weeks / LDL-cholesterol, After 2 weeks / MDA-LDL, After 2 weeks / RLP cholesterol, After 2 weeks / Triglyceride, After 2 weeks / Total cholesterol, After 2 weeks: healthy volunteers; for HDL-cholesterol, Change (%) / LDL-cholesterol, Change (%) / MDA-LDL, Change (%) / RLP cholesterol, Change (%) / Total cholesterol, Change (%) / Triglyceride, Change (%): 20 mg day^−1, after 2 weeks vs baseline; for HDL-cholesterol, After 2 weeks / LDL-cholesterol, After 2 weeks / MDA-LDL, After 2 weeks / RLP cholesterol, After 2 weeks / Triglyceride, After 2 weeks / Total cholesterol, After 2 weeks: fasting; for Total cholesterol, After 2 weeks: mean ± s.e.m., n = 20
Excerpt: as §3

Racl [8] = experiment: Racl expression in control or SmgGDS siRNA-transfected HUVEC; assay type: cell-based, human; conditions: control siRNA-transfected HUVEC, statin 24 h
Method: as §1, §2

Racl [9] = conditions: normal and healthy volunteers, 20 mg day^−1 for 1 week; cited from earlier work
RhoA/Rho-kinase = conditions: normal and healthy volunteers, 20 mg day^−1 for 1 week; cited from earlier work
[10] = Plasma concentration of statins in mice; assay type: in vivo; conditions: male, mouse, oral, 24 hours after last of 2-week gavage, atorvastatin 10 mg/kg/day, pravastatin 50 mg/kg/day, read-out: Plasma concentration of statin
Method: Furthermore, the present inventors administrated each statin by gavage for 2 weeks from the start of AngII administration ([…], 10 mg/kg/day or pravastatin, 50 mg/kg/day) to the each group of mouse. The present inventors measured plasma concentration of statins 24 hours after the last administration (Table 3).

[11] = control siRNA-transfected HUVEC

## O=C(O)C[C@H](O)C[C@H](O)/C=C/c1c(C2CC2)nc2ccccc2c1-c1ccc(F)cc1 [pitavastatin]
[1]; SmgGDS siRNA-transfected HUVEC
  AngII-induced production of ROS: The same results were also obtained
[1]; [11]
  AngII-induced production of ROS: The same results were also obtained
SmgGDS [2]
  SmgGDS expression level in HUVEC: increased SmgGDS expression in HUVEC in a concentration-dependent manner
Racl [3]; HUVEC nucleus fraction, 24 h, atorvastatin 10 μM, pitavastatin 1 μM
  intra-nuclear Racl level: decreased the intra-nuclear Racl level
SmgGDS [4]
  cytoplasmic SmgGDS level: increased the cytoplasmic SmgGDS level

## CC(C)=CCC/C(C)=C/CC/C(C)=C/CC/C(C)=C/COP(=O)(O)OP(=O)(O)O [GGPP, geranylgeranyl pyrophosphate]
SmgGDS [2]
  inhibition of the statin-induced increase in SmgGDS expression level: neither FPP nor GGPP inhibited the increase in SmgGDS expression level by statins

## CC(C)C[C@@H](C=O)NC(=O)[C@H](CC(C)C)NC(=O)[C@H](CC(C)C)NC(=O)OCc1ccccc1 [MG-132] (Cbz-Leu-Leu-Leu-aldehyde)
Racl [3]; HUVEC co-treated with atorvastatin and MG-132
  effect of MG-132 on statin-triggered decrease of Racl expression in the nucleus: inhibited the decreased Racl expression level triggered by atorvastatin in the nucleus

## CC(C)=CCC/C(C)=C/CC/C(C)=C/COP(=O)(O)OP(=O)(O)O [FPP, farnesyl pyrophosphate]
SmgGDS [2]
  inhibition of the statin-induced increase in SmgGDS expression level: neither FPP nor GGPP inhibited the increase in SmgGDS expression level by statins

## O=c1[nH]ccc2c(S(=O)(=O)N3CCCNCC3)cccc12 [HF, hydroxyfasudil]
SmgGDS [2]
  SmgGDS expression level in HUVEC: did not increase the SmgGDS expression level

## Cn1cc(C2=C(c3ccc(Cl)cc3Cl)C(=O)NC2=O)c2ccccc21 [SB216763]
SmgGDS [2]
  SmgGDS expression level in HUVEC: increased the SmgGDS expression level in a concentration-dependent manner

## CC(C)c1c(C(=O)Nc2ccccc2)c(-c2ccccc2)c(-c2ccc(F)cc2)n1CC[C@@H](O)C[C@@H](O)CC(=O)O [atorvastatin]
[5]; AngII-infused SmgGDS+/+ mice
  Systolic blood pressure: 146.7 ± 7.6 mmHg
  Body weight: 27.5 ± 1.1 g
  HDL cholesterol: 76.3 ± 6.8 mg/dL
  LDL-cholesterol: 13.7 ± 1.6 mg/dL
  Total cholesterol: 98.3 ± 7.7 mg/dL
  Triglyceride: 67.0 ± 11.0 mg/dL
[5]; AngII-infused SmgGDS+/− mice
  Systolic blood pressure: 140.4 ± 4.4 mmHg
  Body weight: 26.9 ± 0.5 g
  HDL cholesterol: 81.9 ± 4.8 mg/dL
  LDL-cholesterol: 13.6 ± 1.8 mg/dL
  Total cholesterol: 102.3 ± 6.9 mg/dL
  Triglyceride: 81.4 ± 20.1 mg/dL
SmgGDS [6]; healthy volunteers, 20 mg day^−1, 2 weeks, vs pre-administration level, n=20
  SmgGDS expression in leukocytes in circulating blood: significantly increased
SmgGDS [6]; healthy volunteers
  increase of SmgGDS in leukocytes, average of the 20 volunteers: about 1.5 times
SmgGDS [6]; the 4 volunteers without increase at 10 mg pravastatin, after switching from pravastatin to atorvastatin
  increase in SmgGDS: 3 volunteers out of the above 4 volunteers showed an increase of SmgGDS
[1]; [11]
  AngII-induced production of ROS: decreased the AngII-induced production of ROS
[7]
  HDL-cholesterol, Change (%): 0%
  LDL-cholesterol, Change (%): −46%
  MDA-LDL, Change (%): −38%
  RLP cholesterol, Change (%): −35%
  Total cholesterol, Change (%): −30%
  Triglyceride, Change (%): −33%
[7]; 20 mg day^−1 oral, 2 weeks
  HDL-cholesterol, After 2 weeks: 60 ± 2.7 mg/dL
  LDL-cholesterol, After 2 weeks: 64 ± 3.4 mg/dL
  MDA-LDL, After 2 weeks: 73 ± 4.5 U l^−1
  RLP cholesterol, After 2 weeks: 2.6 ± 0.1 mg/dL
  Triglyceride, After 2 weeks: 73 ± 6.5 mg/dL
  Total cholesterol, After 2 weeks: 138 ± 3.8 mg/dL
[7]; normal healthy adult volunteers, 20 mg day^−1 oral, 2 weeks
  concentration level of total cholesterol and of LDL-cholesterol in blood: reduced the concentration level of total cholesterol and that of LDL-cholesterol in blood
SmgGDS [2]
  SmgGDS expression level in HUVEC: increased SmgGDS expression in HUVEC in a concentration-dependent manner
SmgGDS [4]
  cytoplasmic SmgGDS level: increased the cytoplasmic SmgGDS level
Racl [8]
  Racl expression level in whole cells: decreased Racl expression level in whole cells
Racl [9]
  Racl activity in circulating leucocytes: significantly inhibit Racl activity
RhoA/Rho-kinase
  RhoA/Rho-kinase activity in circulating leucocytes: without suppressing the RhoA/Rho-kinase activity

## CC[C@H](C)C(=O)O[C@H]1C[C@H](O)C=C2C=C[C@H](C)[C@H](CC[C@@H](O)C[C@@H](O)CC(=O)O)[C@H]21 [pravastatin]
[5]; AngII-infused SmgGDS+/+ mice
  Systolic blood pressure: 141.0 ± 7.3 mmHg
  HDL cholesterol: 88.0 ± 4.5 mg/dL
  LDL-cholesterol: 16.1 ± 2.3 mg/dL
  Total cholesterol: 111.2 ± 6.8 mg/dL
  Triglyceride: 47.3 ± 10.9 mg/dL
[5]; AngII-infused SmgGDS+/− mice
  Systolic blood pressure: 146.7 ± 6.6 mmHg
  HDL cholesterol: 94.0 ± 4.1 mg/dL
  LDL-cholesterol: 16.1 ± 1.6 mg/dL
  Total cholesterol: 116.7 ± 5.7 mg/dL
  Triglyceride: 56.6 ± 7.3 mg/dL
SmgGDS [6]; healthy volunteers
  increase of SmgGDS in leukocytes, average of the 20 volunteers: about 1.4 times
[7]
  HDL-cholesterol, Change (%): 5%
  LDL-cholesterol, Change (%): −24%
  MDA-LDL, Change (%): −25%
  RLP cholesterol, Change (%): −22%
  Total cholesterol, Change (%): −14%
  Triglyceride, Change (%): −16%
[7]; 20 mg day^−1 oral, 2 weeks
  HDL-cholesterol, After 2 weeks: 61 ± 2.8 mg/dL
  LDL-cholesterol, After 2 weeks: 88 ± 4.0 mg/dL
  MDA-LDL, After 2 weeks: 85 ± 6.7 U l^−1
  RLP cholesterol, After 2 weeks: 3.2 ± 0.3 mg/dL
  Triglyceride, After 2 weeks: 87 ± 9.1 mg/dL
  Total cholesterol, After 2 weeks: 165 ± 4.5 mg/dL
[10]; AngII-infused SmgGDS+/+ mice
  concentration at 24 h: 0.43 ± 0.08 ng/mL
[10]; AngII-infused SmgGDS+/− mice
  concentration at 24 h: 0.64 ± 0.24 ng/mL
